Tests used:
[1] = biological target: KDM5D (Homo sapiens, UniProt Q9BY66); assay: Surface Plasmon Resonance (SPR), immobilized KDM5D; type: binding; conditions: KDM5D immobilized on COOH5 sensorchip, buffer HSP-1%D, analyte 6.25-100 μM
Protocol: Surface Plasmon Resonance (SPR) experiments were carried out using a SensiQ Pioneer system (ICx Nomadics, Stillwater, OK, USA). Immobilization of ligand (KDM5D) was carried out essentially as in Ilari et al.. The sensor chip (COOH5) was activated chemically by a 100 µL injection of a 1:1 mixture of N-ethyl-N′-(3-([…])carbodiimide (200 mM) and N-hydroxysuccinimide (50 mM) at a flow rate of 5 µL/min. KDM5D was immobilized on activated sensor chips via amine coupling. The immobilization was carried out in 20 mM sodium acetate at pH 4.5; the remaining unreacted groups were blocked by injecting 1 M ethanolamine hydrochloride (100 µL). The amount of immobilized KDM5D was detected by mass concentration-dependent changes in the refractive index on the sensor chip surface and corresponded to about 11,000 resonance units (RU); an empty flow cell was used as a reference. Analytes, i.e., inhibitors RS3152, RS3183, RS3195, RS4995 and RS5033 were dissolved in DMSO at a concentration of 10 mM and diluted in HSP buffer (10 mM Hepes pH 7.4, 150 mM NaCl + 0.005% surfactant P20) to yield 100 μM inhibitor concentration in HSP + 1% DMSO (HSP-1%D). The analytes were automatically diluted in HSP-1%D and injected on the sensorchip for 120 s at a constant flow (30 µL/min); analyte concentrations were: (1) 6.25 μM; (2) 12.5 μM; (3) 25 μM; (4) 50 μM; (5) 100 μM. The increase in RU relative to baseline indicates complex formation; the plateau region represents the steady-state phase of the interaction, whereas the decrease in RU after 120 s represents dissociation of analytes from immobilized KDM5 after injection of buffer HSP-1%D. The sensorgrams were analysed using the SensiQ Qdat 4.0 program and using simple Scatchard plots.

[2] = test system: MCF-7 cells; assay: Flow-cytometry analysis of cell cycle distribution; type: cell-based, human; conditions: MCF-7, same range of concentrations as H3K4me3 test (not shown)
Protocol: Flow-cytometry analysis of DNA content was carried out using an EPICS xl flow-cytometer (Beckman-Coulter, Brea, CA, USA). DMSO and inhibitor treated MCF-7 cells were trypsinized, pelleted, washed with PBS and finally resuspended in PBS containing 0.1% Triton-X-100 (#A1388.1000, AppliChem, Darmstadt, Germany) and 40 μg/mL propidium iodide (#P-4170, Sigma). After 20 min incubation at 37 °C the samples were analyzed. 10,000 events were acquired for each sample. Acquired data were analyzed using the WinMDI software by Joe Trotter, available at http://facs.scripps.edu.

[3] = test system: KDM5A-D; conditions: in vitro, toward KDM5 enzymes; ref Tumber et al. [49]; cited from earlier work
[4] = test system: MCF-7 cells; assay: Clonogenic assay after X-ray irradiation; type: cell-based, human; conditions: MCF-7, 0.03 μM, 3 and 10 Gy, compared to DMSO control
Protocol: One hour after treatment with inhibitors, cells were exposed to X-ray using a MLG 300/6-D apparatus (Gilardoni, Lecco, Italy) set to […] and 6 mA, in order to produce an equivalent absorbed dose of 1cGy/s. Afterwards, cells were harvested, counted and then diluted in inhibitor containing growth medium. Appropriate cell numbers were seeded in quadruplicate according to the doubling time of the cell line and to radiation dose. 24 h after this seeding, the medium with inhibitor was replaced with fresh DMEM and cells were then incubated for 14 days (enough time to allow at least six cell divisions). After this period of growth, cells were washed twice with PBS and then fixed and stained with a suitable volume of a solution made of 0.3% Methylene Blue and 80% Ethanol for 30 min at room temperature. After washing cells twice with ddH2O, plates were pictured with ChemiDoc XRS+ Imaging System (Bio-Rad) in colorimetric mode. Colonies were detected using Fiji software, with the “Find maxima” function setting a background noise threshold of 3000. Radiation-dose response curveS to X-ray for DMSO and inhibitor samples were calculated using surviving fraction. Plating efficiency and surviving fraction were calculated as follows:Plating efficiency = number of colonies counted/number of cells plated Surviving fraction = Plating efficiency/plating efficiency of shame sample

[5] = test system: γ-H2AX levels in MCF-7 cells; assay: Western blotting of H2AX phosphorylation after irradiation; type: cell-based, human; conditions: RS5033 10 μM, KDOAM-25 0.03 μM
Protocol: (§1) Proteins were resolved on a 12% (histones) or 5% (JARID1B) denaturing polyacrylamide gel, using either 4 μg of histone preparation or 40 μg of cell lysate. After electrophoresis, proteins were transferred on a nitrocellulose membrane (Protran™ […] NC, # 10600002, GE Healthcare (Amersham™), Chicago, IL, USA) via wet transfer method using a Bio-Rad tank. Transfer efficiency was verified via ponceau staining (#P7767, Sigma-Aldrich). Filters were blocked with either milk (#70166, Sigma-Aldrich) or bovine serum albumin (#A3069, Sigma-Aldrich) and then hybridized over night at 4 °C in gentle rotation with the following antibodies: rabbit anti-H3K4me3 (1:1000, #39915, Active Motif, RRID:AB_2687512); rabbit-anti-H3K27me3 (1:1000, #9733, Cell Signaling Technology, RRID:AB_2616029); rabbit-anti- H3K9pan-methylated (1:1000, #4473, RRID:AB_10544693); rabbit-anti-H3 ([…], Cat#1791, ABCAM, RRID:AB_302613); rabbit anti-H2AX (1:1000, Cat#7631, Cell Signaling Technology, RRID:AB_10860771), rabbit anti-Phospho-H2AX (1:1000, Cat#9718, Cell Signaling Technology, RRID:AB_2118009), rabbit anti-JARID1B (1:50, Cell Signaling Technology, Cat#3273 RRID: AB_1264191). Goat-anti-Rabbit Horseradish Peroxidase conjugated (1:10,000, #31460, Thermo Fisher Scientific, Waltham, MA, USA RRID:AB_228341) was used as secondary antibody for 1 hour hybridization at room temperature. Blots were scanned and analyzed with a ChemiDoc XRS+ Imaging System (Bio-Rad). The volumes of each band of protein was acquired using Bio-Rad’s ImageLab software by means of volume tools using global quantification. The signal for each protein was normalized to the housekeeping protein and ratios with average control values were determined. For histones as loading control was used either total histone H3 detected by a specific antibody or histone H1 levels by staining the upper part of the gel properly cut before protein transfer on nitrocellulose membrane.

[6] = test system: H3K4me3 levels in MCF-7 cells; assay: Western blotting of H3K4me3 levels in bulk chromatin; type: cell-based, human; conditions: MCF7 bulk chromatin, 24 h
Protocol: Histone isolation was performed according to acid extraction of histones protocol of Shechter and colleagues. Histone concentration was determined by running 5 μL of samples and known concentrations of commercially available purified calf thymus histones (from Sigma Aldrich Cat. #000000010223565001) on a SDS-PAGE gel. The gel is stained with Coomassie blue G 250 (BIO-RAD Cat. #161-0786) for 1 hour at room temperature and then destained in distilled water. The gel image is acquired with ChemiDoc XRS+ Imaging System (Bio-Rad, Hercules, CA, USA) and the volumes of bands of the samples are compared to standard concentrations of calf thymus histone.
as §1

[7] = test system: MCF-7 cells; assay: CCK-8 viability assay after X-ray irradiation; type: cell-based, human; conditions: MCF-7 irradiated with 3 Gy, all concentrations tested, compared to DMSO control, CCK-8 48 h post irradiation
Protocol: The cytoxicity assay was performed with Cell Counting Kit-8 (#96992, Sigma-Aldrich) according to the manufacturer’s instructions. 100 µL of MCF-7 T47D or MDA-MB231 cell suspension (5000 cells/well) was dispensed in a 96-well plate. After 24 h, inhibitor or DMSO was added in growth medium and then cells were irradiated. 48 h post irradiation, 10 μL of CCK-8 solution was added to each well of the plate and incubated again for 1 h. Incubate the plate for 1–4 h in the incubator. The absorbance at 450 nm was read using a VICTOR2 1420 reader (Perkin Elmer Wallac, Waltham, MA, USA). The absorbance at 450 nm of each sample, which is proportional to the number of viable cells, was first normalized on the same value of absorbance of blank (a well with only growth medium). The absorbance of each dose of radiation (sham, 0.3, 1 and 3 Gy) was normalized to the corresponding DMSO control and then, for each concentration of inhibitors, these values were normalized to the corresponding sham control.

[8] = test system: panel of 55 receptors and enzymes; set-up: method as in PMID 28262558; conditions: cited from earlier work
[9] = test system: MM1S multiple myeloma cells; set-up: method as in PMID 28262558; conditions: cited from earlier work

Sequence of KDM5D (Q9BY66 whole entry): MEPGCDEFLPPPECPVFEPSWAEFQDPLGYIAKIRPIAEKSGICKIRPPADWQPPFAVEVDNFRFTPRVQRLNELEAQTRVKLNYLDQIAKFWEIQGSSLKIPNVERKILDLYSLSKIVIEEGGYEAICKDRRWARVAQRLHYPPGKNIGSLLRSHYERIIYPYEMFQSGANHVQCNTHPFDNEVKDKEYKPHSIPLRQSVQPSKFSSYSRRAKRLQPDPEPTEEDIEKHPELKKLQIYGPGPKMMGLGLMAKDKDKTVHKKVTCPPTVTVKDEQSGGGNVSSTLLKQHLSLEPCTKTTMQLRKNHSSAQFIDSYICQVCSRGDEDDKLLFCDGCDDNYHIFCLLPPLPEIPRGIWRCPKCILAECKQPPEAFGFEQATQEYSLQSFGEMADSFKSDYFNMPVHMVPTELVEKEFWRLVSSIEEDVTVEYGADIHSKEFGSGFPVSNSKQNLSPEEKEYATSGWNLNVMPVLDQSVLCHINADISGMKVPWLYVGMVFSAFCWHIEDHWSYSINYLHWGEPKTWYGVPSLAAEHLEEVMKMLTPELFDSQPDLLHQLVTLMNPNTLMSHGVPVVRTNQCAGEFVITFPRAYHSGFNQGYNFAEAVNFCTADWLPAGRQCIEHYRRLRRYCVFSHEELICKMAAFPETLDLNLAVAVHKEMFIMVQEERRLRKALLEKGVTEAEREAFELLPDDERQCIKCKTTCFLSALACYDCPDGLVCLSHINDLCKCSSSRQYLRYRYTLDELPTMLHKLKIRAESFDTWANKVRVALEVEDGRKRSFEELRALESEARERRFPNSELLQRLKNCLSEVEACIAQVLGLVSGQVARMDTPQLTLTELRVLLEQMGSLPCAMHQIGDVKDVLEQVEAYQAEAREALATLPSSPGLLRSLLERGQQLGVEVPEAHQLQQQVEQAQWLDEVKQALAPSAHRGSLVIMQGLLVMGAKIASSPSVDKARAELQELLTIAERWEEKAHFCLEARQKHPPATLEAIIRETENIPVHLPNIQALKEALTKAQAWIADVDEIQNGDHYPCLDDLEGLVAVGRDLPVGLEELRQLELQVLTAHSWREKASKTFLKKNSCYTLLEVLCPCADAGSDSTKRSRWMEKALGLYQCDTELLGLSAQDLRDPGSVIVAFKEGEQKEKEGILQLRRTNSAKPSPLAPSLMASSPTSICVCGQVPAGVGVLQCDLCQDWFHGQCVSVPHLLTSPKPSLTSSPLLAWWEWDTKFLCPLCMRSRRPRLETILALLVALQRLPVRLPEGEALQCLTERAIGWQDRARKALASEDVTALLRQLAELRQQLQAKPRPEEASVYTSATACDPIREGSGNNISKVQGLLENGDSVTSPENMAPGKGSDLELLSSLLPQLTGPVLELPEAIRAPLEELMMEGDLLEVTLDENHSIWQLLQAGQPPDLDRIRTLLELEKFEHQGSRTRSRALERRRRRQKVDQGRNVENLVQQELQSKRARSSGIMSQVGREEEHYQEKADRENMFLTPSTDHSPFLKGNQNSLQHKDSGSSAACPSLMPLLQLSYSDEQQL

SMILES: COc1ccc(S(=O)(=O)Nc2cccc(C(=O)O)c2)cc1 [RS3183]
- Kd [1]: 150 ± 15 µM

SMILES: COc1ccc(S(=O)(=O)Nc2cccc(C(=O)n3cccc3)c2)cc1 [RS3152]
- Kd [1]: 62 ± 5 µM

SMILES: CCN(CCN(C)C)C(=O)CNCc1cc(C(N)=O)ccn1 [KDOAM-25, reference compound]
- effect on cell cycle [2]: does not show any significant effect
- IC50 [3]: < 0.1 µM
- proliferative capacity (clonogenic survival) [4]: slight but significant decrease
- ɤH2AX increase normalized to the amount of H2AX ([5]; MCF-7, 6 Gy, 4-36 h): not significant
- amount of ɤH2AX ([5]; MCF-7, sham-irradiated and irradiated (6 Gy) cells): increases
- increase of H3K4 tri-methylation ([6]; 0.03–1 μM): around 1.5 fold
- increase of H3K4 tri-methylation at higher concentrations ([6]; concentrations above 1 μM): the effect is lost
- reduction of viable cells [7]: 20–35%
- off-target activity [8]: no off-target activity
- proliferation of MM1S multiple myeloma cells [9]: block proliferation

SMILES: CCOC(=O)c1ccccc1C(=O)c1ccc(NS(=O)(=O)c2ccc(Br)cc2)cc1 [RS4995]
- Kd [1]: 38 ± 3 µM
